Test results reported in patent US9499551B2, “Substituted pyrrolo[2,3-b]pyridines for treating cancer or inflammatory diseases” (Confluence Life Sciences, Inc., priority 2014, dated 2016).

Experiments:
TAK1-TAB1 = target: T1, TAK1-TAB1 (Homo sapiens, UniProt O43318); assay: TAK1-TAB1 binding inhibitory potency (LanthaScreen competitive binding assay, kinase tracer-236); conditions: 10 nM TAK1-TAB1, 100 nM kinase tracer-236; read-out: TAK1-Tab Inhibition IC50
T1 sequence (O43318 with tags, fused parts or gaps limits assumed): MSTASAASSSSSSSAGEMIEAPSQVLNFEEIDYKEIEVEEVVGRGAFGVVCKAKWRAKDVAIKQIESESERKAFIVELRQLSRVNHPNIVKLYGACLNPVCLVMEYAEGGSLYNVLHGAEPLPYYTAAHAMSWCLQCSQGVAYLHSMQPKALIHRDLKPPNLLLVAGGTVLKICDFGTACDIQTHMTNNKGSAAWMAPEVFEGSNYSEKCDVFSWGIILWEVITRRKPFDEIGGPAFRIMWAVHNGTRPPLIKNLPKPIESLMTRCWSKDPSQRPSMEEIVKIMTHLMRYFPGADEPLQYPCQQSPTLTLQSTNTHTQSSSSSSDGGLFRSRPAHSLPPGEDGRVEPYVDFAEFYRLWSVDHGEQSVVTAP
Procedure, shortened: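 Compounds were tested for TAK1-TAB1 binding in a 384-well LanthaScreen competitive FRET assay. TAK1-TAB1 (10 nM) and Eu-anti-his antibody (2 nM) were preincubated with compound for two hours before adding 100 nM Alexa Fluor 647 kinase tracer-236. The buffer was 20 mM HEPES pH 7.5, 10 mM MgCl2, 0.01% BSA, 0.0005% Tween-20 and 2% DMSO. IC50 came from 4-parameter logistic fits of emission ratio over an 11-point series from 20 μM to 0.34 nM.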

[1] = system: IL-6 Production in Human Peripheral Blood Mononuclear Cells (PBMC); assay: LPS stimulated IL-6 production in PBMC cells; assay type: cell-based; conditions: read-out: IL-6 Production Inhibition IC50
Procedure: LPS Stimulated IL-6 Production in PBMC Cells:
Lipopolysaccharide (LPS) stimulated IL-6 Production in Human Peripheral Blood Mononuclear Cells (PBMC): The cellular efficacy of compound candidates is determined using peripheral blood mononuclear cells purified from human whole blood, based upon the methods of Burnette et al. (2009) Pharmacology, 84:42-60. PBMC produce a number of cytokines (IL6, IL8, IL1β and TNFα) in response to stimulation with LPS. To induce the production of inflammatory mediators, PBMC are plated at a final concentration of 2×10^5 cells/well in a 96 well flat bottom plate in DMEM medium supplemented with 10% fetal bovine serum, 100 units/ml penicillin and 100 μg/ml streptomycin (Gibco BRL Life Technologies). Cells are treated with or without inhibitors for 1-3 hrs then stimulated with 100 ng/ml LPS (serotype 011:B4, Sigma) for an additional 3 hrs at 37° C. with 5% CO2. The supernatants are removed and stored at −20° C. until they are to be assayed. The levels of inflammatory mediators are determined using commercial MSD cytokine kits (Meso Scale Discovery) as per the manufacturer's instructions. Standard curves are based on 7 steps of 4× serial dilutions, with a wide dynamic range of 10000 pg/ml to 2.4 pg/ml, and a blank. Lower limit of detection (LLOD) is calculated at the commonly used 3× the standard deviation of the blank.

| Structure (SMILES) | IC50 (TAK1-TAB1) | IC50 [1] |
| --- | --- | --- |
| CC(C)N1CCN(C(=O)c2ccc(-c3cnc4[nH]cc(/C=C/C(N)=O)c4c3)cc2)CC1 [Example 268, (E)-3-(5-(4-(4-isopropyl-piperazine-1-carbonyl)phenyl)-1H-pyrrolo[2,3-b]pyridin-3-yl)acrylamide] | ≤ 1000 nM | ≤ 1000 nM |
| NC(=O)/C=C/c1c[nH]c2ncc(-c3ccccc3)nc12 [Example 4, (E)-3-(2-Phenyl-5H-pyrrolo[2,3-b]pyrazin-7-yl)acrylamide] | ≤ 1000 nM | ≤ 1000 nM |
| CC(C)NC(=O)c1ccc(-c2cnc3[nH]cc(/C=C/C(N)=O)c3c2)nc1 [Example 295, (E)-6-(3-(3-amino-3-oxoprop-1-en-1-yl)-1H-pyrrolo[2,3-b]pyridin-5-yl)-N-isopropyl-nicotinamide] | ≤ 1000 nM | > 1000 nM |
| COc1ccc(-c2cnc3[nH]cc(/C=C/C(N)=O)c3c2)cc1 [Example 12, (E)-3-(5-(4-Methoxyphenyl)-1H-pyrrolo[2,3-b]pyridin-3-yl)acrylamide] | ≤ 1000 nM | ≤ 1000 nM |
| CC(=O)/C=C/c1c[nH]c2ncc(-c3cccnc3)cc12 [Example 251, (E)-4-(5-(pyridin-3-yl)-1H-pyrrolo[2,3-b]pyridin-3-yl)but-3-en-2-one] | ≤ 1000 nM | > 1000 nM |
| CC(C)Oc1cnc2[nH]cc(/C=C/C(N)=O)c2c1 [Example 8, 3-(5-Isopropoxy-1H-pyrrolo[2,3-b]pyridin-3-yl)-acrylamide] | ≤ 1000 nM | ≤ 1000 nM |
| NC(=O)/C=C/c1c[nH]c2ncc(-c3ccc(F)cc3F)nc12 [Example 248, (E)-3-(2-(2,4-difluorophenyl)-5H-pyrrolo[2,3-b]pyrazin-7-yl)acrylamide] | ≤ 1000 nM | ≤ 1000 nM |
| N#C/C=C/c1c[nH]c2ncc(N3CCN(C(=O)c4ccccc4)CC3)cc12 [Example 279, (E)-3-(5-(4-benzoylpiperazin-1-yl)-1H-pyrrolo[2,3-b]pyridin-3-yl)acrylonitrile] | ≤ 1000 nM | > 1000 nM |
| N#Cc1ccc(-c2cnc3[nH]cc(/C=C/C(N)=O)c3n2)cc1 [Example 249, (E)-3-(2-(4-cyanophenyl)-5H-pyrrolo[2,3-b]pyrazin-7-yl)acrylamide] | ≤ 1000 nM | ≤ 1000 nM |
| CN1CCC(NC(=O)c2ccc(-c3cnc4[nH]cc(/C=C/C(N)=O)c4c3)nc2)CC1 [Example 296, (E)-6-(3-(3-amino-3-oxoprop-1-en-1-yl)-1H-pyrrolo[2,3-b]pyridin-5-yl)-N-(1-methylpiperidin-4-yl)nicotinamide] | ≤ 1000 nM | > 1000 nM |
| NC(=O)/C=C/c1c[nH]c2ncc(-c3ccc(C(=O)NC4CC4)cc3)cc12 [Example 270, (E)-4-(3-(3-amino-3-oxoprop-1-en-1-yl)-1H-pyrrolo[2,3-b]pyridin-5-yl)-N-cyclopropyl-benzamide] | ≤ 1000 nM | > 1000 nM |
| CC(C)Nc1cnc2[nH]cc(/C=C/C(N)=O)c2c1 [Example 9, 3-(5-Isopropylamino-1H-pyrrolo[2,3-b]pyridin-3-yl)-acrylamide] | ≤ 1000 nM | ≤ 1000 nM |
| C[C@H](O)C(=O)N1CCN(c2cnc3[nH]cc(/C=C/C(N)=O)c3c2)CC1 [Example 276, (S,E)-3-(5-(4-(2-hydroxypropanoyl)piperazin-1-yl)-1H-pyrrolo[2,3-b]pyridin-3-yl)acrylamide] | ≤ 1000 nM | > 1000 nM |
| Cc1cc(-c2cnc3[nH]cc(/C=C/C(N)=O)c3c2)cc(C(C)(C)C)c1 [Example 256, (E)-3-(5-(3-(tert-butyl)-5-methylphenyl)-1H-pyrrolo[2,3-b]pyridin-3-yl)acrylamide] | ≤ 1000 nM | ≤ 1000 nM |
| N#Cc1ccc(-c2cnc3[nH]cc(/C=C/C(N)=O)c3n2)cn1 [Example 285, (E)-3-(2-(6-cyanopyridin-3-yl)-5H-pyrrolo[2,3-b]pyrazin-7-yl)acrylamide] | ≤ 1000 nM | ≤ 1000 nM |
| NC(=O)/C=C/c1c[nH]c2ncc(-c3ccc(C(F)(F)F)cc3)cc12 [Example 252, (E)-3-(5-(4-(trifluoromethyl)phenyl)-1H-pyrrolo[2,3-b]pyridin-3-yl)acrylamide] | ≤ 1000 nM | ≤ 1000 nM |
| NC(=O)/C=C/c1c[nH]c2ncc(N3CC(NC(=O)c4ccccc4)C3)cc12 [Example 298, (E)-N-(1-(3-(3-amino-3-oxoprop-1-en-1-yl)-1H-pyrrolo[2,3-b]pyridin-5-yl)azetidin-3-yl)benzamide] | ≤ 1000 nM | ≤ 1000 nM |
| NC(=O)/C=C/c1c[nH]c2ncc(N3CCN(c4ccccc4)CC3)cc12 [Example 297, (E)-3-(5-(4-phenylpiperazin-1-yl)-1H-pyrrolo[2,3-b]pyridin-3-yl)acrylamide] | ≤ 1000 nM | ≤ 1000 nM |
| NC(=O)/C=C/c1c[nH]c2ncc(-c3cc(C(F)(F)F)cc(C(F)(F)F)c3)cc12 [Example 253, (E)-3-(5-(3,5-bis(trifluoromethyl)phenyl)-1H pyrrolo[2,3-b]pyridin-3-yl)acrylamide] | ≤ 1000 nM | ≤ 1000 nM |
| CC(C)(O)c1cccc(-c2cnc3[nH]cc(/C=C/C(N)=O)c3c2)c1 [Example 246, (E)-3-(5-(3-(2-hydroxypropan-2-yl)phenyl)-1H-pyrrolo[2,3-b]pyridin-3-yl)acrylamide] | ≤ 1000 nM | ≤ 1000 nM |
